Here are results for five compounds from patent US20240335563A1, “EPIGENETIC MODULATORS FOR TISSUE REPROGRAMMING” (THE TRUSTEES OF INDIANA UNIVERSITY, priority 2021, published 2024).

SMILES strings stand for the structures.

One experiment deals with mouse fibroblasts. The note with it: LSD1 inhibition; cited from earlier work.
The test system of the next experiment is intermediate iPSCs. The note with it: cited from earlier work; for SCR efficiency: HDAC inhibition.
Experiment [1] has as its system neural precursor cells and MEFs. Particulars: G9a inhibition, H3K9 hypomethylation; cited from earlier work.
The subject of the next experiment is ESC-specific genes. The note with it: alone, without transduction of the reprogramming factors; cited from earlier work.
For experiment [2], the system named is streptozotocin-induced diabetic C57BL/6 male mice. In words: Blood glucose in streptozotocin-induced diabetic mice after TNT-PMGF, with intradermal epigenetic modulator. Particulars: p<0.001 vs. week 4. Format: in vivo.

As for `N[C@@H]1C[C@H]1c1ccccc1` (racemic) [Parnate, tranylcypromine], the “reprogramming efficiency of mouse fibroblasts” value with mouse fibroblasts was “increases the reprogramming efficiency”.

For the compound `CCCC(CCC)C(=O)O` [valproic acid], the SCR efficiency result in the experiment on intermediate iPSCs is given as “improves SCR efficiency”. Turning to `COc1cc2nc(N3CCCN(C)CC3)nc(NC3CCN(Cc4ccccc4)CC3)c2cc1OC` [BIX-01294], the “reprogramming of neural precursor cells and MEFs into iPSCs” value in experiment [1] was “enhances the reprogramming”. As to `CC(/C=C/C(=O)NO)=C\[C@@H](C)C(=O)c1ccc(N(C)C)cc1` [trichostatin A], the “upregulation of ESC-specific genes” value in the experiment with ESC-specific genes was “sufficient to upregulate ESC-specific genes”. Moreover, the SCR efficiency entry in the experiment with intermediate iPSCs is given as “improves SCR efficiency”. `Nc1ncn([C@@H]2O[C@H](CO)[C@@H](O)[C@H]2O)c(=O)n1` [5-Azacytidine] displayed an average blood glucose in experiment [2] (week 5, after 5-Azacytidine 10 mg/Kg intradermally at TNT sites thrice in week 4, TNT PMGF non-responders) of approximately 275 mg/dL. For the same compound, the blood glucose was approximately 170 mg/dL in experiment [2] (week 8, after subsequent 5-Azacytidine injection at week 7) and 169 mg/dL in experiment [2] (week 9, after subsequent 5-Azacytidine injection at week 7). Moreover, in the experiment with intermediate iPSCs (DNMT inhibition during reprogramming), the “reprogramming of intermediate iPSCs” value is on record as “allows intermediate iPSCs to be fully reprogrammed”.
